Results reported in patent US20260325481A1, “THERAPY SELECTION AND TREATMENT OF NEURODEGENERATIVE DISORDERS” (Anavex Life Sciences Corp., priority 2022, published 2026).
Like-named read-outs stand apart in the source and are kept apart here.

Key:
Cluster 2 (962 genes) = assay: RNAseq whole blood transcriptomics, WGCNA Cluster 2 and pathway analysis; set-up: species or system human; settings: for Number of pathways significantly overrepresented in second cluster: among its 317 pathways
Experimental: (§1) In order to gain insights into ANAVEX 2-73 response pathways, during the Phase 2 study, patients' DNA and RNA sequencing were analyzed. Transcriptomic samples of 65 patients enrolled in either High Dose or Mid Dose arms were collected at baseline and at the end of treatment (Week 14). The expression of 14,150 genes was measured. No transformation was applied to the TPM values. Values associated with a with RIN s 4.0 were discarded. The actual dose of ANAVEX 2-73 (blarcamesine) that was given to each patient during the trial was assessed and integrated into the database. To characterize the gene dysregulations, a pathway database was built using an aggregation of public databases including KEGG, Panther, Allen, Brain Atlas, Gene Ontology, and Reactome.
The genes were clustered together using WGCNA, starting from their correlation of TPM expression values across samples. Seventeen clusters with size ranging from 13 to 11,190 genes were obtained through this gene clusterisation. The TPM expression values of genes in clusters were then aggregated in a single “eigengene” for each cluster. This eigengene served as a representant of the overall dysregulation of the cluster. Secondly, a cluster filtering was performed, wherein patients' arm and dose information were taken into account based on mixed effect models. For each cluster, the eigengene was used as target variable of a linear mixed effect model with 3 covariates: ActualDose, Patient, and timepoint. For each cluster, the contrast ActualDose, i.e. treated vs placebo were evaluated across all timepoints. P-values were obtained with Dunnett's test. Regardless of the cluster and pathway, pathways with less than 4 genes in a cluster were removed, to compensate for the large variability of cluster size and corresponding variability of number of pathways identified in each clusters. The ratio between cluster size and number of pathways was calculated, and top 2 clusters were retained for further Analysis. Cluster 1 contained 213 genes (n1=213) and 37 pathways, and Cluster 2 contained 962 genes (n2=962) and 317 pathways. […] Thirdly, the two retained clusters were characterized and underwent pathway analysis. The characterization and analysis were applied to all the genes of the cluster (whole cluster), and to the genes of the clusters that are known to have biological interactions (reduced cluster). In the whole cluster analysis, overrepresented pathways were identified using EnrichR package with the parameters of Fisher's adjusted p-value p<0.05 (Benjamini-Hochberg adjustment for multiple testing) and minimum pathway size 20. In the reduced cluster analysis, genes that have no interaction with any other genes of the cluster were discarded, resulting in a reduced cluster. Pathway analysis was performed on these reduced clusters. False Discovery Rate with adjustment for multiple testing (Benjamini-Hochberg procedure) was used to characterize pathways' over-representation. Known interactions between the genes of the cluster were assessed using STRING database with the parameters of Edge score >0.150, and no text mining edges. Known interactions were obtained from public databases, such as KEGG, Panther, Allen, Brain Atlas, Gene Ontology, and Reactome.
(§2) Whole Blood Transcriptomics Analysis (RNAseq) of patients with Parkinson's disease with dementia (PDD) was performed for the ANAVEX®2-73-PDD-001 study (FIG. 1) at two timepoints: Baseline and Week 14 (end of trial). All available RNA samples with […] (RNA integrity number, using 130 samples) were analyzed. The expression of 14,150 genes at these two timepoints were analyzed from both placebo and ANAVEX® 2-73 treated patients.
The above method was performed as illustrated in FIG. 2B. […] Then, the cluster's eigengene3 (one of a set of a genes matrix that tabulates the mRNA or gene expression of the genes across the sample) was used as summary of expression level of the cluster. […]

[1] = tested on: gene clusters differentially expressed in PDD patients; assay: RNAseq whole blood transcriptomics, gene clusters overall; set-up: species or system human
Experimental: as §1
The genes were clustered together using WGCNA, starting from their correlation of TPM expression values across samples. Seventeen clusters with size ranging from 13 to 11,190 genes were obtained through this gene clusterisation. The TPM expression values of genes in clusters were then aggregated in a single “eigengene” for each cluster. This eigengene served as a representant of the overall dysregulation of the cluster. […] For each cluster, the contrast ActualDose, i.e. treated vs placebo were evaluated across all timepoints. […] The ratio between cluster size and number of pathways was calculated, and top 2 clusters were retained for further Analysis. […] Known interactions between the genes of the cluster were assessed using STRING database with the parameters of Edge score >0.150, and no text mining edges. […]
as §2, with “patients. […]” for “patients.”

SIGMAR1 = SIGMAR1 levels in PDD-001 patients; format: in vivo, human; settings: PDD-001 study
Experimental: The trial enrolled 132 adults, ages 50-85, with PDD, and was successfully concluded in September 2020. Participants, recruited at multiple sites in Spain and Australia, were randomly assigned to one of two doses groups (with an escalating ANAVEX 2-73 dose up to 30 or 50 mg oral capsules) or to a placebo, once daily for 14 weeks (see FIG. 1 for details). The trial's main goals were to assess the therapy's safety and changes in patients' cognitive function, measured using the cognitive drug research computerized assessment system—a test that looks at multiple cognitive skills, such as choice reaction time (choosing between similar objects), vigilance, and episodic memory (remembering new personal experiences or shared information). Secondary goals included changes in patients' motor abilities—assessed with the Movement Disorders Society Unified Parkinson's Disease Rating Scale (MDS-UPDRS) Part III—and sleep quality. […] This sleep disorder is associated with greater cognitive impairment and a higher risk of dementia. […] After 14 weeks, the MDS-UPDRS total score dropped by 10.98 points (indicating an easing in disease severity) in the high-dose group and rose by 3.53 points in the placebo group. This represented an adjusted mean improvement of 14.51 points—surpassing the established, clinically meaningful 7.1 point-cut-off—and a relative improvement of 18.9% over 14 weeks. […]

Structure (SMILES): CN(C)CC1CCOC1(c1ccccc1)c1ccccc1.Cl (stereo not drawn) [ANAVEX2-73, tetrahydro-N,N-dimethyl-2,2-diphenyl-3-furanmethanamine hydrochloride]
- Overlap (Cluster 2 (962 genes)): 45/273
- Number of pathways significantly overrepresented in second cluster (Cluster 2 (962 genes); listed as ANAVEX 2-73, hydrochloride): 15 pathways
- Number of pathways significantly overrepresented in second cluster (Cluster 2 (962 genes); listed as ANAVEX® 2-73, hydrochloride): 10 pathways
- Overlap (Cluster 2 (962 genes); genes of pathway in Cluster 2/genes in pathway, KEGG 2021, Alzheimer disease): 47/369
- Overlap (Cluster 2 (962 genes); genes of pathway in Cluster 2/genes in pathway, KEGG 2021, Amyotrophic lateral sclerosis): 46/364
- Overlap (Cluster 2 (962 genes); genes of pathway in Cluster 2/genes in pathway, KEGG 2021, Cardiac muscle contraction): 11/87
- Overlap (Cluster 2 (962 genes); genes of pathway in Cluster 2/genes in pathway, KEGG 2021, Coronavirus disease): 80/232
- Overlap (Cluster 2 (962 genes); genes of pathway in Cluster 2/genes in pathway, KEGG 2021, Diabetic cardiomyopathy): 36/203
- Overlap (Cluster 2 (962 genes); genes of pathway in Cluster 2/genes in pathway, KEGG 2021, Huntington disease): 48/306
- Overlap (Cluster 2 (962 genes); genes of pathway in Cluster 2/genes in pathway, KEGG 2021, Non-alcoholic fatty liver disease): 34/155
- Overlap (Cluster 2 (962 genes); genes of pathway in Cluster 2/genes in pathway, KEGG 2021, OProteasome): 9/46
- Overlap (Cluster 2 (962 genes); genes of pathway in Cluster 2/genes in pathway, KEGG 2021, Oxidative phosphorylation): 36/133
- Overlap (Cluster 2 (962 genes); genes of pathway in Cluster 2/genes in pathway, KEGG 2021, Parkinson disease): 46/249
- Overlap (Cluster 2 (962 genes); genes of pathway in Cluster 2/genes in pathway, KEGG 2021, Pathways of neurodegeneration): 50/475
- Overlap (Cluster 2 (962 genes); genes of pathway in Cluster 2/genes in pathway, KEGG 2021, Retrograde endocannabinoid signaling): 24/148
- Overlap (Cluster 2 (962 genes); genes of pathway in Cluster 2/genes in pathway, KEGG 2021, Ribosome): 96/158
- Overlap (Cluster 2 (962 genes); genes of pathway in Cluster 2/genes in pathway, KEGG 2021, Thermogenesis): 45/232
- Overlap (Cluster 2 (962 genes); genes of term in Cluster 2/genes in term, Allen Brain Atlas, Anterior olfactory nucleus): 27/300
- Overlap (Cluster 2 (962 genes); genes of term in Cluster 2/genes in term, Allen Brain Atlas, Anterior olfactory nucleus, external part): 34/300
- Overlap (Cluster 2 (962 genes); genes of term in Cluster 2/genes in term, Allen Brain Atlas, Anterior olfactory nucleus, layer 1): 36/300
- Overlap (Cluster 2 (962 genes); genes of term in Cluster 2/genes in term, Allen Brain Atlas, Main olfactory bulb): 31/300
- Overlap (Cluster 2 (962 genes); genes of term in Cluster 2/genes in term, Allen Brain Atlas, Main olfactory bulb, glomerular layer): 36/300
- Overlap (Cluster 2 (962 genes); genes of term in Cluster 2/genes in term, Allen Brain Atlas, Main olfactory bulb, inner plexiform layer): 28/300
- Overlap (Cluster 2 (962 genes); genes of term in Cluster 2/genes in term, Allen Brain Atlas, Main olfactory bulb, mitral layer): 28/300
- Overlap (Cluster 2 (962 genes); genes of term in Cluster 2/genes in term, Allen Brain Atlas, Main olfactory bulb, outer plexiform layer): 30/300
- Overlap (Cluster 2 (962 genes); genes of term in Cluster 2/genes in term, Allen Brain Atlas, OB olfactory fiber layer): 33/300
- Overlap (Cluster 2 (962 genes); genes of term in Cluster 2/genes in term, Allen Brain Atlas, Olfactory areas): 27/300
- Overlap (Cluster 2 (962 genes); genes of term in Cluster 2/genes in term, Allen Brain Atlas, Olfactory bulb, principal part): 32/300
- Cluster 2 eigengene expression (Cluster 2 (962 genes); high oral dose vs placebo): significantly increased
- Number of brain areas significantly overrepresented in second cluster (Cluster 2 (962 genes); n2=962 genes): 74 brain areas
- Number of overrepresented brain areas linked to the olfactory bulb (Cluster 2 (962 genes); out of 74): 11 brain areas
- Number of clusters with significant association between treatment and estimated marginal mean expression ([1]; Dunnett's test, linear mixed-effect model): 6 clusters
- Dysregulations of Clusters 1 and 2 ([1]; highest dose): significantly linked to the highest dose
- Regulation of both identified clusters ([1]; treated patients compared to placebo, 14 weeks): up-regulated
- SIGMAR1 levels (SIGMAR1): significant increase
- Association of rise in SIGMAR1 levels with clinical response (SIGMAR1; attention measures, MDS-UPDRS total and Part III): significantly associated with improvements in attention measures, and reductions in both MDS-UPDRS total and MDS-UPDRS Part III (motor scores)
